In series [1] the test system is hind limb vasculature of the anesthetized dog. Put plainly: Vasodilator activity, dog-leg perfusion. It is filed as in vivo. Conditions: approximate intraarterial dose causing 50% reduction in perfusion pressure in hind limb; for ED50: Canis lupus familiaris, read-out: Vasodilator Activity Dog-Leg Perfusion AED50. From the text: (§1) Vasodilator activity was judged on the basis of observed reduction in perfusion pressure in the hind limb vasculature of the anesthetized dog determined according to the procedure described by Jandhyala et al., European J. Pharm. 17, 357 (1972), and also on the basis of percent reduction in perfusion pressure as measured in the isolated rabbit ear artery according to the method described by De LaLande et al., Aust. J. Exp. Biol. Med. Sci. 43, 639 (1965).
^c AED50 =approximate intraarterial dose required to cause a 50%
reduction in perfusion pressure in the hind limb of the anesthetized dog.

For series [2], the system named is heart rate increase elicited by isoproterenol in the pentobarbitalized dog. Put plainly: β-adrenergic blocking activity in the pentobarbitalized dog. It counts as in vivo. The note with it: for ED50 / inhibition at 0.1 mg/kg / inhibition at 1 mg/kg: Canis lupus familiaris; for ED50 / Adrenergic Activity Dog β-blockade AED50: approximate intravenous dose causing 50% inhibition of isoproterenol-elicited heart rate increase; for ED50: read-out: Adrenergic Activity Dog β-blockade AED50; for inhibition at 0.1 mg/kg: 0.1 mg./kg. intravenous; for inhibition at 0.1 mg/kg / inhibition at 1 mg/kg: read-out: Actual percentage inhibition of heart rate increase above control level at the indicated dose; for inhibition at 1 mg/kg: 1.0 mg./kg. intravenous. Here is the method:
The β-adrenergic blocking activity was determined in the pentobarbitalized dog as judged by the ability of the test compound to inhibit the elevation is heart rate elicited by a 0.5 mcg./kg. i.v. injection of isoproterenol.
^e AED50 = approximate intravenous dose required to cause 50%
inhibition of the heart rate increase elicited by isoproterenol in the
^h Actual percentage inhibition of heart rate increase above control
level observed at the indicated dose.

The subject of series [3] is unanesthetized spontaneous hypertensive rat. Put plainly: Antihypertensive activity, single oral medication in the spontaneous hypertensive rat (SH Rat). It is filed as in vivo. Conditions: for ED (40 mm Hg): Rattus norvegicus, single oral dose required to induce a 40 mm average reduction in systolic blood pressure, read-out: Antihypertensive Activity SH Rat AHD40 mg./kg. P.O.; for Actual reduction in blood pressure observed at the indicated dose: SH rat; for lower blood pressure: at 50 mg./kg. Here is the method: Antihypertensive activity was determined on the basis of the observed reduction in systolic blood pressure measured according to the method of H. Kersten et al., J. Lab. and Clin. Med. 32, 1090 (1947) following a single oral medication in the unanesthetized spontaneous hypertensive rat described by Okamato et al., Japan Circulation J. 27, 282 (1963).
^a AHD40 = single oral dose required to induce a 40 mm average
reduction in systolic blood pressure in the unanesthetized spontaneous
^f Actual reduction in blood pressure (in mm Hg) observed at the […]

The test system of series [4] is isolated rabbit ear artery. Put plainly: Vasodilator activity, isolated rabbit ear artery perfusion pressure. Conditions: Oryctolagus cuniculus, read-out: Rabbit Ear Artery vasodilation (percentage reduction in perfusion pressure); for inhibition at 20 µM: 2 × 10^-5 M; for inhibition at 50 µM: 5 × 10^-5 M.
Excerpt: as §1
^d Vasodilation is expressed as the percentage reduction in perfusion
pressure from the control level at the indicated molar dose.

Series [5] concerns unanesthetized trained renal hypertensive dog. Put plainly: Antihypertensive activity, repeated oral medication in the renal hypertensive dog. It counts as in vivo. The note with it: for minimal effective dose: Canis lupus familiaris, minimum repeated oral daily dose for sustained lowering of blood pressure of 10% or greater, tid, read-out: Antihypertensive Activity Renal Hypertensive Dog MED10 mg./kg. tid. The source says:
Antihypertensive activity was also judged on the basis of sustained reduction of blood pressure observed in the unanesthetized trained renal hypertensive dog following repeated oral medication according to the procedure described by Lape et al., Arch. Int. Pharmacodyn. 160, 342 (1966).
^b MED10 = minimum repeated oral daily dose required to effect a
sustained lowering of blood pressure of 10% or greater in the
unanesthetized trained renal hypertensive dog.
^g Actual precentage reduction in blood pressure observed at the […]

For series [6], the system named is ouabain-induced arrhythmia in dogs. Put plainly: Ouabain-induced arrhythmia conversion.
Procedure: The latter was determined in vivo and efficacy was judged on the ability of the test compound to convert to normal rhythm the arrhythmia induced by barium ion or ouabain intoxication.
Adult mongrel dogs of either sex, after fasting for 16 to 20 hours, were anesthetized with 35 mg./kg. Na-pentobarbital i.v. and tied supine on an operating table. A patent airway was provided by inserting an endotracheal cannula, and the animal respired spontaneously. A femoral vein was double cannulated with one cannula for injection and the other as a site for ouabain infusion. The ipsilateral femoral artery was cannulated for blood pressure measurement. Na-pentobarbital supplements were given i.v. as needed.
Statham P23A blood pressure transducers were used to measure blood pressure, and electrocardiograms (lead II or V1) were taken with monopolar pin electrodes. Both parameters were printed out on a Grass polygraph. Each dog was given 36 mcg./kg. ouabain i.v. over 1 minute (the solution contained 50 mcg./ml. ouabain in isotonic saline) followed by a constant ouabain infusion (0.6 mcg./kg./min.) starting 5 minutes later. The infusion solution was prepared so that the appropriate dose per minute was delivered in 0.5 ml. […]
All ECG interval and duration measurements were made on lead II with a chart speed of 100 mm./sec. […] Blood pressure was measured using a sensitivity of 10 mm. […]

Counter-ions that a name gives are not always drawn. Like-named read-outs stand apart in the source and are kept apart here. Some results are limits rather than exact numbers.

`COc1ccc(CCC(C)NCC(O)c2ccc(O)c(SC)c2)cc1` (single isomer, unassigned) [Example 13A]: the results for the ED50 in series [1] and in series [2] (iv) were 0.5 mg/kg and over 0.1 mg/kg, respectively. Besides, the inhibition at 0.1 mg/kg in series [2] came to 14%.
Turning to `COc1ccc(CCC(C)NCC(O)c2ccc(O)c(SC)c2)cc1` (single isomer, unassigned) [Example 13B], in series [1], the “Vasodilator Activity Dog-Leg Perfusion AED50” value stood at 0.5 mg/kg. Besides, the “Adrenergic Activity Dog β-blockade AED50” value in series [2] is 0.1 mg/kg.
On to `CSc1cc(C(O)CNC(C)CCc2ccc(O)cc2)ccc1O` (single isomer, unassigned) [Example 40B, 4-hydroxy-α-<{[3-(4-hydroxyphenyl)-1-methylpropyl]amino}-methyl>-3-(methylthio)benzenemethanol cyclohexanesulfamate], for which, in series [3], the ED (40 mm Hg) is over 50 mg/kg. The “Actual reduction in blood pressure observed at the indicated dose” value (“Actual reduction” below) in series [3] (50.0 mg./kg. P.O.) was -9 mm Hg. The ED50 in series [2] (iv) came to 0.1 mg/kg.
As for `COc1ccc(CC(C)NCC(O)c2ccc(O)c(SC)c2)cc1` (stereo not drawn) [Example 3, 4-hydroxy-α-<{[2-(4-methoxyphenyl)-1-methylethyl]amino}methyl>-3-(methylthio)benzenemethanol acetate salt], the ED50 amounted to 0.5 mg/kg in series [1] and 0.1 mg/kg in series [2]. Also, in series [4], the inhibition at 20 µM stood at 56%. For the same molecule, in series [3], the ED (40 mm Hg) was 20 mg/kg.
`COc1ccc(CCC(C)NCC(O)c2ccc(O)c(SC)c2)cc1` (stereo not drawn) [Example 5, 4-hydroxy-α-<{[3-(4-methoxyphenyl)-1-methylpropyl]amino}methyl>-3-(methylthio)benzenemethanol acetate salt]: the values for the ED50 in series [1] and in series [2] (iv) were 0.5 mg/kg and 0.1 mg/kg, respectively. In addition, the inhibition at 100 µM in series [4] (1 × 10^-4 M) was determined as 55%. For the same molecule, the minimal effective dose in series [5] is over 2.5 mg/kg. Further, the “Actual percentage reduction in blood pressure observed at the indicated dose” value in series [5] (renal hypertensive dog, 2.5 mg./kg. tid) worked out at 0%. For the same molecule, the ED (40 mm Hg) in series [3] is 15 mg/kg. In series [3] (at a dose of 15 mg./kg.), this molecule gave a lowers blood pressure of 40 mm. Also, the “potency relative to the reference compounds” value in series [3] (at less than one-third the dose of Reference Compounds I and II) was “twice as potent”.
For `COc1ccc(CCC(C)NCC(O)c2ccc(O)c(SC)c2)cc1` (stereo not drawn) [Example 12B, 4-hydroxy-α-<{[3-(4-methoxyphenyl)-1-methylpropyl]amino}methyl>3-(methylthio)benzenemethanol acetate salt], the inhibition at 0.1 mg/kg in series [2] came to 45%. Moreover, the “Adrenergic Activity Dog β-blockade AED50” value in series [2] (acetate salt) is over 0.1 mg/kg.
Take `COc1ccc(CCC(C)NCC(O)c2ccc(O)c(SC)c2)cc1` (stereo not drawn) [Example 12C, 4-hydroxy-α<{[3-(4-methoxyphenyl)-1-methylpropyl]amino}methyl>-3-(methylthio)benzenemethanol acetate salt]: in series [2] (acetate salt), the “Adrenergic Activity Dog β-blockade AED50” value was about 0.10 mg/kg.
In the case of `COc1ccc(CCC(C)NCC(O)c2ccc(OC(=O)c3ccccc3)c(SC)c2)cc1` (stereo not drawn) [Example 15A, 4-hydroxy-α-<{[3-(4-methoxyphenyl)-1-methylpropyl]amino}methyl>-3-(methylthio)benzenemethanol 4-benzoate acetate salt], the ED (40 mm Hg) in series [3] is over 50 mg/kg. Also, the “Actual reduction” value in series [3] (50.0 mg./kg. P.O.) is recorded as -10 mm Hg.
As for `CC(=O)O.CSc1cc(C(O)CNC(C)(C)Cc2ccccc2)ccc1O` (stereo not drawn) [Example 20, α-{[(1,1-dimethyl-2-phenylethyl)amino]methyl}-4-hydroxy-3-(methylthio)benzenemethanol acetate salt], in series [1], the ED50 came to 0.5 mg/kg. The inhibition at 10 µM in series [4] (1 × 10^-5 M) was 71%. Moreover, the ED (40 mm Hg) in series [3] is about 50 mg/kg. Also, in series [2], the inhibition at 1 mg/kg is 56% and the ED50 was under 1 mg/kg.
On to `CSc1cc(C(O)CNC(C)Cc2ccccc2)ccc1O` (stereo not drawn) [Example 22, 4-hydroxy-α-{[(1-methyl-3-phenylethyl)amino]methyl}-3-(methylthio)benzenemethanol acetate salt], for which the ED50 in series [1] is 0.5 mg/kg; in series [2], under 1 mg/kg. Besides, the inhibition at 20 µM in series [4] stood at 33%. The ED (40 mm Hg) in series [3] came to 35 mg/kg. For the same molecule, the inhibition at 1 mg/kg in series [2] worked out at 60%.
For the molecule `COc1ccc(CC(C)NC(C)C(O)c2ccc(O)c(SC)c2)cc1` (stereo not drawn) [Example 24, 4-hydroxy-α-<{[2-(4-methoxyphenyl)-1-methylethyl]amino}ethyl>-3-(methylthio)benzenemethanol acetate salt], the ED (40 mm Hg) in series [3] is over 20 mg/kg. Further, in series [3] (20.0 mg./kg. P.O.), the “Actual reduction” value is given as -23 mm Hg.
Take `CC(=O)O.CSc1cc(C(O)CNC(C)(C)CCc2ccccc2)ccc1O` (stereo not drawn) [Example 28, α-{[(1,1-dimethyl-3-phenylpropyl)amino]methyl}-4-hydroxy-3-(methylthio)benzenemethanol acetate salt]: the results for the ED50 in series [1] and in series [2] (iv) were 0.5 mg/kg and under 1 mg/kg, respectively. Besides, the inhibition at 50 µM in series [4] was 70%. Besides, in series [3], the ED (40 mm Hg) was about 10 mg/kg. The inhibition at 1 mg/kg in series [2] was determined as 100%.
`COc1ccc(CCC(C)(C)NCC(O)c2ccc(O)c(SC)c2)cc1` (stereo not drawn) [Example 30, α-<{[1,1-dimethyl-3-(4-methoxyphenyl)propyl]amino}methyl>-4-hydroxy-3-(methylthio)benzenemethanol acetate salt]: the ED50 in series [1] is 0.5 mg/kg; in series [2] (iv), under 1 mg/kg. Also, the inhibition at 90 µM in series [4] (9 × 10^-5 M) turned out to be 50%. Also, the minimal effective dose in series [5] came to 0.5 mg/kg. In addition, the ED (40 mm Hg) in series [3] came out at 20 mg/kg. Besides, in series [2], the inhibition at 1 mg/kg amounted to 72%.
As for `CSc1cc(C(O)CNC(C)CCc2ccccc2)ccc1O` (stereo not drawn) [Example 32, 4-hydroxy-α-{[(1-methyl-3-phenylpropyl)amino]methyl}-3-methylthio)benzenemethanol acetate salt], the ED50 in series [1] amounted to 0.5 mg/kg; in series [2] (iv) it was 0.1 mg/kg. Besides, the inhibition at 50 µM in series [4] amounted to 81%. Moreover, the ED (40 mm Hg) in series [3] was 5 mg/kg.
Consider `COc1ccc(CCCC(C)NCC(O)c2ccc(O)c(SC)c2)cc1` (stereo not drawn) [Example 36, 4-hydroxy-α-<{[4-(4-methoxyphenyl)1-methylbutyl]amino}methyl>-3-(methylthio)benzenemethanol acetate salt], for which the ED (40 mm Hg) in series [3] is over 50 mg/kg. For the same molecule, the “Actual reduction” value in series [3] (50.0 mg./kg. P.O.) is recorded as -17 mm Hg.
As for `COc1cc(CCNCC(O)c2ccc(O)c(SC)c2)cc(OC)c1OC` (stereo not drawn) [Example 51, 4-hydroxy-3-(methylthio)-α-<{[2-(3,4,5-trimethoxyphenyl)ethylamino}methyl>benzenemethanol hydrochloride], the “toxic dose in the ouabain test” value in series [6] (anesthetized dog) is 2.5×10^-5 Mg/kg. Further, in series [6] (below 2.5×10^-5 Mg/kg.), the “activity in the ouabain test” value is “inactive”.
For `COc1ccc(CCC(C)NCC(O)c2ccc(SC)c(O)c2)cc1` (stereo not drawn) [Ref Cpd I, 3-hydroxy-α-<{[3-(4-methoxyphenyl)-1-methylpropyl]amino}methyl>-4-(methylthio)benzenemethanol acetate salt, reference compound], in series [3], the ED (40 mm Hg) was over 50 mg/kg and the lower blood pressure is 20 mm. In addition, in series [3] (50.0 mg./kg. P.O.), the “Actual reduction” value is listed as -20 mm Hg.
For `COc1ccc(CCC(C)NCC(O)c2ccc(OC)c(SC)c2)cc1` (stereo not drawn) [Ref Cpd II, 4-methoxy-α-<{[3-(4-methoxyphenyl)-1-methylpropyl]amino}methyl>-3-(methylthio)benzenemethanol hydrochloride, reference compound], in series [3], the ED (40 mm Hg) was over 50 mg/kg and the lower blood pressure turned out to be 24 mm. Also, in series [3] (50.0 mg./kg. P.O.), the “Actual reduction” value is listed as -24 mm Hg. For the same molecule, in series [2] (iv), the ED50 is 0.07 mg/kg.

The values are drawn from patent US4695589A, “Alpha-(aminoalkyl-4-hydroxy-3-(alkylthio)benzenemethanols” (Sterling Drug Inc., priority 1983, dated 1987).
